Test results as given in patent US20230414762A1, “PROSTATE-SPECIFIC MEMBRANE ANTIGEN (PSMA)-TARGETED PRODRUG FOR SELECTIVE KILLING OF CELLS […]” (The Johns Hopkins University, priority 2020, published 2023).
Values joined by “and” are separate entries in the source; they are usually repeats but may differ in a detail not shown here. Identical values can stand only once. “Also recorded” adds a separate entry of the source. Starred links: 1 amine or outer side, 2 acyl side, 3 side chain; linkers in the order of their positions; H or OH if unused. Non-standard residues stand in square brackets, D forms with d. Residues, ends and D or L forms follow the SMILES beside them. *: point of attachment. X1 = O=C(O)CC[C@H](NC(=O)N[C@@H](CCCCNC(=O)CCCCCCC(=O)*)C(=O)O)C(=O)O; Dolaproine = CO[C@@H]([C@@H]1CCCN1)[C@@H](C)C(=O)O; Dil = CC[C@H](C)[C@H](NC)[C@@H](CC(=O)O)OC; PABC = O=C(OCc1ccc(N[*:1])cc1)[*:2]; X2 = C[C@@H](N*)[C@@H](O)c1ccccc1; Cit = NC(=O)NCCC[C@H](N)C(=O)O; NMeV = CN[C@H](C(=O)O)C(C)C

What was measured:
recombinant cathepsin B = molecular target: T1, recombinant cathepsin B (Homo sapiens, UniProt P07858); assay: Release of MMAE from prodrug by recombinant cathepsin B; assay type: biochemical; details: within 3 h of incubation with recombinant cathepsin B
T1 construct: purchased MilliporeSigma C8571
Method: Release of MMAE from prodrugs by a recombinant cathepsin B was analyzed using a modified method from previously published work. Dubowchik et al., 2002. Prodrug stock solutions (8 μL, 10 mM) were added to the 2 mL cathepsin B (MilliporeSigma, Cat #C8571, Burlington, MA, USA) containing buffer (25 mM acetate, 1 mM EDTA, pH 5, pre-warmed at 37° C.) at the final concentration of 30 nM (cathepsin B) and 40 μM (prodrug). Aliquots (200 μL) were periodically removed and enzymatic activity was stopped by the addition of thioprotease inhibitor E-64 (30 nM in the final solution, MilliporeSigma, Cat #E3132). The samples were centrifuged and the supernatants were analyzed by HPLC (Waters 600 E coupled with Varian prostar detector, Milford, MA, USA). Samples were prepared at 0, 10, 20, 30, 60, 90, and 120 min. Experiments were performed in triplicate.

[1] = Serum stability in murine serum (HPLC); assay type: in vitro ADME, mouse
Method: Serum stability of prodrugs was analyzed using a modified method from previously published work. Chu et al., 2012. Prodrug stock solution (8 μL, 10 mM) was incubated with 100% mouse serum (final concentration of the serum was 80% after the mixing with prodrug solution) at 37° C. Aliquots (50 μL) were periodically removed at 2, 4, 8, 24, and 48 h, and diluted with cold ice CH3OH (100 μL) to precipitate proteins. The samples were centrifuged, and the supernatants were analyzed by HPLC. Stability was calculated based on the peak area of the prodrug at each time point. Experiments were performed in triplicate.

[2] = Serum stability in human serum; assay type: in vitro ADME
Method: Prior to in vivo potency, the stability of SBPD-1 and SBPD-2 in murine serum was evaluated. While 90% of SBPD-2 remained intact for 48 h in murine serum (FIG. 3a), SBPD-1 was metabolized more quickly in murine serum (FIG. 3a). […] SBPD-1, however, was stable in human serum (FIG. 3a). It has been reported that the valine-citrulline linker is stable in human and monkey serum, but that it can be hydrolyzed in mouse plasma via extracellular carboxylesterase 1c. Dorywalska et al., 2016; Anami et al., 2018. Based on those stability results, small, fractionated doses were applied for the murine efficacy study to avoid systemic toxicity that could affect the overall survival of the test animals.

PSMA+PC3 PIP tumors = assay: Subcutaneous xenograft efficacy, PSMA+ PC3 PIP tumors; assay type: in vivo, NSG mice; details: for median survival time: 4-fold tumor volume scored as death
PSMA− PC3 flu tumors = assay: Subcutaneous xenograft efficacy, PSMA- PC3 flu tumors; assay type: in vivo, NSG mice
[3] = In vivo toxicity in healthy mice (weight, survival, histopathology); design: species or system C57BL/6 mice
Method: (§1) The potential toxicity of SBPD-1 was evaluated in immunocompetent animals. MMAE (80 μg/kg), SBPD-1 (160 μg/kg), and 5% DMSO were administered to healthy C57BL/6 mice (n=5). Animals were monitored for 80 days after initiation of administration. […] Lung, liver, kidneys, salivary and lacrimal glands were removed from all tested animals at Day 80 after initiation of SBPD-1 treatment. […] Peripheral blood also was obtained from mice injected with vehicle, SBPD-1, and healthy untreated animals, and prepared serum for chemistry studies (n=5).
(§2) Male C57BL/6 mice were purchased from Jackson Laboratory. Ten-week-old mice were injected with the indicated doses of MMAE (formulated in 5% DMSO), SBPD-1 (formulated in saline) or 5% DMSO intraperitoneally (daily for 30 days, n=5). Animals were monitored daily for weight changes and other abnormalities for 80 days. Animals were euthanized in a CO2 chamber at day 80, and blood, lung, liver, kidney, salivary gland, and lacrimal gland were collected for complete blood counts, blood chemistry, and histopathological analyses. Complete blood counts including white blood cells (WBC), red blood cells (RBC), hemoglobin (HGB), hematocrit (HCT), mean corpuscular volume (MCV), mean corpuscular hemoglobin (MCH), mean corpuscular hemoglobin concentration (MCHC), and platelet (PLT) were measured using scil Vet ABC™ Hematology Analyzer (scil animal care company, Gurnee, IL). Blood chemistry parameters including blood urea nitrogen (BUN), glucose (GLU), Alkaline Phosphatase (ALP), total protein (T-Pro), Alanine aminotransferase (ALT) and Creatinine (Cre) were measured with Spotchem EZ chemistry analyzer (Arkray USA, Edina, MN). Hematoxylin and eosin slides were generated for five organs and examined by certified veterinary pathologist.

[4] = Blood chemistry in healthy mice; assay type: in vivo; details: C57BL/6 mice
Method: as §1, §2

[5] = Complete blood count in healthy mice; assay type: in vivo; details: C57BL/6 mice, 0.16 mg/kg
Method: as §2

PSMA+PC3/ML/PSMA cells = assay: Experimental metastatic model of PSMA-expressing PC
Method: A PSMA-expressing experimental metastatic model of human PC was used to evaluate efficacy of SBPD-1 on established metastatic tumors. […] PSMA+PC3/ML/PSMA cells were administered to NSG mice intravenously (IV) and tumors were allowed to establish for four weeks. PC3/ML/PSMA cells express firefly luciferase as an imaging reporter to allow tumor development to be monitored via weekly bioluminescence imaging (BLI).
For the metastatic model, NSG mice were injected with 0.75 million PC3/ML/PSMA cells via the tail vein. […] BLI was performed weekly using the IVIS Spectrum in vivo imaging system (Perkin Elmer, Waltham, MA).

[6] = Urinalyses from subcutaneous xenograft model (urine reagent strips); details: for urine protein / urine specific gravity: individual mice

## CC[C@H](C)[C@@H]([C@@H](CC(=O)N1CCC[C@H]1[C@H](OC)[C@@H](C)C(=O)N[C@H](C)[C@@H](O)c1ccccc1)OC)N(C)C(=O)[C@@H](NC(=O)[C@H](C(C)C)N(C)C(=O)OCc1ccc(NC(=O)[C@H](CCCNC(N)=O)NC(=O)[C@@H](NC(=O)CCCCCCC(=O)NCCCC[C@H](NC(=O)N[C@@H](CCC(=O)O)C(=O)O)C(=O)O)C(C)C)cc1)C(C)C [SBPD-1, (6S,9S,24S,28S)-1-Amino-6-((4-((5S,8S,11S,12R)-11-((S)-sec-butyl)-12-(2-((S)-2-((1R,2R)-3-(((1S,2R)-1-hydroxy-1-phenylpropan-2-yl)amino)-1-methoxy-2-methyl-3-oxopropyl)pyrrolidin-1-yl)-2-oxoethyl)-5,8-diisopropyl-4,10-dimethyl-3,6,9-trioxo-2,13-dioxa-4,7,10-triazatetradecyl)phenyl)carbamoyl)-9-isopropyl-1,8,11,18,26-pentaoxo-2,7,10,19,25,27-hexaazatriacontane-24,28,30-tricarboxylic acid] (X1-V[Cit][PABC][NMeV]V[Dil][Dolaproine]-X2)
Recombinant cathepsin B
  MMAE released: 80%
[1]; 8 h of incubation
  intact in serum: more than 80%
[1]; 24 h
  fraction representing parent compound: less than half
[1]; by 48 h of incubation
  degradation of prodrug: the majority of the prodrug was fully degraded
[2]
  stability in human serum: stable
PSMA+PC3 PIP tumors; 20 μg/kg daily IP for 30 days
  median survival time: 17 days
PSMA+PC3 PIP tumors; 40 μg/kg
  time until previously undetectable tumors could be re-measured: Approximately one week
PSMA+PC3 PIP tumors; 40 μg/kg daily IP for 30 days
  median survival time: 54 days
PSMA+PC3 PIP tumors; 80 μg/kg
  time until re-appearance of tumors: Two weeks
PSMA+PC3 PIP tumors; 80 μg/kg daily IP for 30 days
  median survival time: 69 days
PSMA+PC3 PIP tumors; doses of 40 and 80 μg/kg
  tumors at completion of treatment: undetectable
PSMA− PC3 flu tumors; 20 μg/kg daily IP for 30 days
  median survival time: 15 days
PSMA− PC3 flu tumors; 40 μg/kg daily IP for 30 days
  median survival time: 15 days
PSMA− PC3 flu tumors; 80 μg/kg daily IP for 30 days
  median survival time: 20 days
[3]; Day 80 after initiation of treatment, 160 μg/kg
  histopathological examination of lung, liver, kidneys, salivary and lacrimal glands: no tissue damage
[3]; healthy C57BL/6 mice, 160 μg/kg IP daily for 30 days, monitored 80 days
  signs of toxicity / weight: did not show any signs of toxicity; also recorded: did not induce toxicity
[4]; 160 μg/kg
  BUN, creatinine, glucose, ALP, T-Pro, ALT compared with untreated mice: did not show differences
[4]; 0.16 mg/kg, individual mice
  ALP: 94 IU/L (2×) and 108 IU/L and 96 IU/L and 85 IU/L
  ALT: 21 IU/L and 31 IU/L and 22 IU/L and 14 IU/L and 28 IU/L
  BUN: 28 mg/dl (2×) and 37 mg/dl (2×) and 27 mg/dl
  Cre: 1 mg/dl and 1.2 mg/dl and 1.1 mg/dl (2×) and 0.8 mg/dl
  GLU: 188 mg/dL and 248 mg/dL and 285 mg/dL and 219 mg/dL and 189 mg/dL
  T-Pro: 6.1 g/dl and 6.2 g/dl and 5.9 g/dl (2×) and 6 g/dl
[5]
  complete blood counts, abnormalities: no abnormalities except for lower white blood cell count
[5]; individual mice
  HCT: 36% and 36.6% and 32.2% and 35.6% and 35.8%
  HGB: 13.4 g/dl (2×) and 13.8 g/dl and 12.4 g/dl and 14 g/dl
  MCH: 33.8 pg (3×) and 35 pg and 34.8 pg
  MCHC: 75.8 g/dl (3×) and 76.4 g/dl and 78.2 g/dl
  MCV: 90 μm^3 (4×) and 92 μm^3
  PLT: 1280 10^3/mm^3 (2×) and 1068 10^3/mm^3 and 1132 10^3/mm^3 and 1262 10^3/mm^3
  RBC: 8.08 10^6/mm^3 and 8.16 10^6/mm^3 and 7.02 10^6/mm^3 and 7.98 10^6/mm^3 and 8.02 10^6/mm^3
  WBC: 1.6 10^3/mm^3 (2×) and 1.8 10^3/mm^3 and 1.4 10^3/mm^3 and 2 10^3/mm^3
PSMA+PC3/ML/PSMA cells; 40 μg/kg daily IP for 30 days
  median survival: 47 days
PSMA+PC3/ML/PSMA cells; 80 μg/kg daily IP for 30 days
  median survival: 56 days
PSMA+PC3/ML/PSMA cells; 160 μg/kg daily IP for 30 days
  median survival: 58 days
[6]; Day 9, PC3/PIP, 0.02 mg/kg
  urine protein: 30
  urine specific gravity: 1.025 (3×) and 1.02 (2×)
[6]; Day 9, PC3/PIP, 0.04 mg/kg
  urine protein: 30 (3×) and trace (2×)
  urine specific gravity: 1.025
[6]; Day 9, PC3/PIP, 0.08 mg/kg
  urine protein: trace and 30 (4×)
  urine specific gravity: 1.025
[6]; Day 9, PC3/flu, 0.02 mg/kg
  urine protein: 30
  urine specific gravity: 1.025 (4×) and 1.02
[6]; Day 9, PC3/flu, 0.04 mg/kg
  urine protein: 30
  urine specific gravity: 1.025
[6]; Day 9, PC3/flu, 0.08 mg/kg
  urine protein: 300 (2×) and 30 (2×) and 100
  urine specific gravity: 1.025
[6]; Day 20, PC3/PIP, 0.02 mg/kg
  urine protein: 30
  urine specific gravity: 1.025
[6]; Day 20, PC3/PIP, 0.04 mg/kg
  urine protein: 30
  urine specific gravity: 1.025
[6]; Day 20, PC3/PIP, 0.08 mg/kg
  urine protein: 30 (3×) and 100 (2×)
  urine specific gravity: 1.025
[6]; Day 20, PC3/flu, 0.02 mg/kg
  urine protein: 30
  urine specific gravity: 1.025 (3×) and 1.01 and 1.03
[6]; Day 20, PC3/flu, 0.04 mg/kg
  urine protein: 30
  urine specific gravity: 1.025 (2×) and 1.03 (2×)
[6]; Day 20, PC3/flu, 0.08 mg/kg
  urine protein: 300 (2×) and 30 (3×)
  urine specific gravity: 1.025
[6]; all test animals, Days 9 and 20, any dose tested
  urine protein level and specific gravity (acute renal toxicity): normal
